Test results as given in the NIST ThermoML archive (doi:10.1016/j.jct.2005.07.017).
Numbers after ± are expanded uncertainties.

Settings: 298.15 K; 101.33 kPa; Liquid

SMILES	mass density [kg/m3]
COC(C)(C)C [2-methoxy-2-methylpropane]	735.99 ± 0.86
CC1CCCO1 (centres undefined) [2-methyltetrahydrofuran]	848.1 ± 0.73
CCCCCCCC [octane]	698.73 ± 0.86
C1CCOC1 [tetrahydrofuran]	882.09 ± 0.64
